{"source": "paper PMC5218480", "about": "(PLoS ONE, 2017)", "tested_on": "MV-4-11 cells", "assay": "Gene expression microarray analysis (Affymetrix PrimeView) and GSEA", "format": "cell-based, human", "parameters": "RFU PODN (11730768_x_at) / Fold change /veh PODN (11730768_x_at) / RFU LINC00158 (11744669_a_at) / Fold change /veh LINC00158 (11744669_a_at) / RFU DUSP10 (11751237_a_at) / Fold change /veh DUSP10 (11751237_a_at) / RFU ID3 (11757404_x_at) / Fold change /veh ID3 (11757404_x_at) / RFU PLEKHG5 (11737974_s_at) / Fold change /veh PLEKHG5 (11737974_s_at) / RFU LRRC4B (11730491_at) / Fold change /veh LRRC4B (11730491_at) / RFU GIMAP4 (11747438_a_at) / Fold change /veh GIMAP4 (11747438_a_at) / RFU KRT8 (11758183_x_at) / Fold change /veh KRT8 (11758183_x_at) / RFU CNN1 (11734310_a_at) / Fold change /veh CNN1 (11734310_a_at) / RFU VPS37D (11726825_at) / Fold change /veh VPS37D (11726825_at) / RFU C10orf10 (11716522_x_at) / Fold change /veh C10orf10 (11716522_x_at) / RFU KIR2DL2 /// KIR2DL4 /// KIR2DL5A /// KIR2DL5B /// KIR2DS1 /// KIR2DS2 /// KIR2DS3 /// KIR2DS4 /// KIR3DL3 /// KIR3DL3 /// KIR3DS1 (11738374_at) / Fold change /veh KIR2DL2 /// KIR2DL4 /// KIR2DL5A /// KIR2DL5B /// KIR2DS1 /// KIR2DS2 /// KIR2DS3 /// KIR2DS4 /// KIR3DL3 /// KIR3DL3 /// KIR3DS1 (11738374_at) / RFU C1QL1 (11718748_at) / Fold change /veh C1QL1 (11718748_at) / RFU TMPRSS4 (11747572_a_at) / Fold change /veh TMPRSS4 (11747572_a_at) / RFU HAMP (11756126_x_at) / Fold change /veh HAMP (11756126_x_at) / RFU RNFT2 (11725882_a_at) / Fold change /veh RNFT2 (11725882_a_at) / RFU NR4A2 (11747474_a_at) / Fold change /veh NR4A2 (11747474_a_at) / RFU ABCC12 (11746883_a_at) / Fold change /veh ABCC12 (11746883_a_at) / RFU TMEM136 (11760407_x_at) / Fold change /veh TMEM136 (11760407_x_at) / RFU CLDN22 /// WWC2 (11732394_at) / Fold change /veh CLDN22 /// WWC2 (11732394_at) / RFU HLA-DPB1 (11760878_x_at) / Fold change /veh HLA-DPB1 (11760878_x_at) / RFU SPINT1 (11716480_a_at) / Fold change /veh SPINT1 (11716480_a_at) / RFU GAP43 (11754022_s_at) / Fold change /veh GAP43 (11754022_s_at) / RFU A4GNT (11735810_at) / Fold change /veh A4GNT (11735810_at) / RFU PRB3 (11715151_x_at) / Fold change /veh PRB3 (11715151_x_at) / RFU TUBB4B (11761932_at) / Fold change /veh TUBB4B (11761932_at) / RFU CAPN14 (11732068_a_at) / Fold change /veh CAPN14 (11732068_a_at) / RFU TMCC2 (11721928_a_at) / Fold change /veh TMCC2 (11721928_a_at) / RFU IRGQ (11745062_a_at) / Fold change /veh IRGQ (11745062_a_at) / RFU FAM174B (11720279_a_at) / Fold change /veh FAM174B (11720279_a_at) / RFU TMPRSS4 (11748680_a_at) / Fold change /veh TMPRSS4 (11748680_a_at) / RFU FAM212B (11763350_a_at) / Fold change /veh FAM212B (11763350_a_at) / RFU PLEKHG5 (11743358_a_at) / Fold change /veh PLEKHG5 (11743358_a_at) / RFU ZSCAN30 (11745921_a_at) / Fold change /veh ZSCAN30 (11745921_a_at) / RFU CMKLR1 (11741424_a_at) / Fold change /veh CMKLR1 (11741424_a_at) / RFU LOC101060620 /// MAPK8IP1 (11723275_at) / Fold change /veh LOC101060620 /// MAPK8IP1 (11723275_at) / RFU SPTSSB (11747773_x_at) / Fold change /veh SPTSSB (11747773_x_at) / RFU PRSS12 (11739890_at) / Fold change /veh PRSS12 (11739890_at) / RFU BIN1 (11741810_x_at) / Fold change /veh BIN1 (11741810_x_at) / RFU WNT11 (11732464_a_at) / Fold change /veh WNT11 (11732464_a_at) / RFU C10orf10 (11716521_a_at) / Fold change /veh C10orf10 (11716521_a_at) / RFU C5orf56 (11738089_at) / Fold change /veh C5orf56 (11738089_at) / RFU CYB561 (11721691_x_at) / Fold change /veh CYB561 (11721691_x_at) / RFU ANKRD19P (11752326_a_at) / Fold change /veh ANKRD19P (11752326_a_at) / RFU OR2T12 /// OR2T33 /// OR2T8 (11738714_s_at) / Fold change /veh OR2T12 /// OR2T33 /// OR2T8 (11738714_s_at) / RFU VCAN (11748164_a_at) / Fold change /veh VCAN (11748164_a_at) / RFU JSRP1 (11732532_at) / Fold change /veh JSRP1 (11732532_at) / RFU KRTAP10-11 (11738290_x_at) / Fold change /veh KRTAP10-11 (11738290_x_at) / RFU MYO3A (11730013_a_at) / Fold change /veh MYO3A (11730013_a_at) / RFU EBF3 (11725865_a_at) / Fold change /veh EBF3 (11725865_a_at) / RFU CAMK2N1 (11719241_x_at) / Fold change /veh CAMK2N1 (11719241_x_at) / RFU C5orf56 (11738088_a_at) / Fold change /veh C5orf56 (11738088_a_at) / RFU OLFML3 (11715873_a_at) / Fold change /veh OLFML3 (11715873_a_at) / RFU LOC100653217 /// NTM (11731650_a_at) / Fold change /veh LOC100653217 /// NTM (11731650_a_at) / RFU MAPK11 (11762145_a_at) / Fold change /veh MAPK11 (11762145_a_at) / RFU FIZ1 (11724087_x_at) / Fold change /veh FIZ1 (11724087_x_at) / RFU OASL (11726364_x_at) / Fold change /veh OASL (11726364_x_at) / RFU SOX15 (11748057_x_at) / Fold change /veh SOX15 (11748057_x_at) / RFU CD79A (11719716_a_at) / Fold change /veh CD79A (11719716_a_at) / RFU HIST1H1D (11736915_at) / Fold change /veh HIST1H1D (11736915_at) / RFU CASKIN2 (11723855_a_at) / Fold change /veh CASKIN2 (11723855_a_at) / RFU LOC730098 (11760151_x_at) / Fold change /veh LOC730098 (11760151_x_at) / RFU OR4N2 (11742367_at) / Fold change /veh OR4N2 (11742367_at) / RFU PRRT2 (11749266_a_at) / Fold change /veh PRRT2 (11749266_a_at) / RFU SNX32 (11753110_a_at) / Fold change /veh SNX32 (11753110_a_at) / RFU CDHR5 (11726645_a_at) / Fold change /veh CDHR5 (11726645_a_at) / RFU RCAN1 (11760418_a_at) / Fold change /veh RCAN1 (11760418_a_at) / RFU FAM167A (11723789_a_at) / Fold change /veh FAM167A (11723789_a_at) / RFU FAM26E (11764081_at) / Fold change /veh FAM26E (11764081_at) / RFU ISYNA1 (11749810_s_at) / Fold change /veh ISYNA1 (11749810_s_at) / RFU ACY1 (11761880_at) / Fold change /veh ACY1 (11761880_at) / RFU 11764098_at / Fold change /veh 11764098_at / RFU SAMD14 (11745864_x_at) / Fold change /veh SAMD14 (11745864_x_at) / RFU NPB (11741838_a_at) / Fold change /veh NPB (11741838_a_at) / RFU TMPRSS6 (11731388_a_at) / Fold change /veh TMPRSS6 (11731388_a_at) / RFU KRTAP10-2 (11738614_at) / Fold change /veh KRTAP10-2 (11738614_at) / RFU ARHGAP8 /// PRR5-ARHGAP8 (11727945_x_at) / Fold change /veh ARHGAP8 /// PRR5-ARHGAP8 (11727945_x_at) / RFU KRTAP5-7 /// NADSYN1 (11734609_at) / Fold change /veh KRTAP5-7 /// NADSYN1 (11734609_at) / RFU RASL12 (11751679_a_at) / Fold change /veh RASL12 (11751679_a_at) / RFU CDKN2B (11736163_a_at) / Fold change /veh CDKN2B (11736163_a_at) / RFU PRF1 (11729649_at) / Fold change /veh PRF1 (11729649_at) / RFU, ZNF638 /// ZNF638-IT1 / Fold change vs veh, ZNF638 /// ZNF638-IT1 / RFU, PANK3 / Fold change vs veh, PANK3 / RFU, SH3YL1 / Fold change vs veh, SH3YL1 / RFU, ZEB2 / Fold change vs veh, ZEB2 / RFU, NRIP1 / Fold change vs veh, NRIP1 / RFU, PTTG1IP / Fold change vs veh, PTTG1IP / RFU, CAPN2 / Fold change vs veh, CAPN2 / RFU, MED14 / Fold change vs veh, MED14 / RFU, SNORA58 / Fold change vs veh, SNORA58 / RFU, C1orf63 / Fold change vs veh, C1orf63 / RFU, LRRFIP1 / Fold change vs veh, LRRFIP1 / RFU, NDUFAF7 / Fold change vs veh, NDUFAF7 / RFU, SLC12A2 / Fold change vs veh, SLC12A2 / RFU, IBTK / Fold change vs veh, IBTK / RFU, ESF1 / Fold change vs veh, ESF1 / Fold change vs veh, TMEM50B / RFU, TAOK1 / Fold change vs veh, TAOK1 / RFU, ACBD3 / Fold change vs veh, ACBD3 / RFU, TMA16 / Fold change vs veh, TMA16 / RFU, RWDD3 / Fold change vs veh, RWDD3 / RFU, BCAT1 / Fold change vs veh, BCAT1 / RFU, EDEM3 / Fold change vs veh, EDEM3 / RFU, TMEM33 / Fold change vs veh, TMEM33 / RFU, WDR75 / Fold change vs veh, WDR75 / RFU, AHCTF1 / Fold change vs veh, AHCTF1 / RFU, TFRC / Fold change vs veh, TFRC / RFU, ZDHHC17 / Fold change vs veh, ZDHHC17 / RFU, NOM1 / Fold change vs veh, NOM1 / RFU, ARL8B / Fold change vs veh, ARL8B / RFU, ZBTB11 / Fold change vs veh, ZBTB11 / RFU, TAMM41 / Fold change vs veh, TAMM41 / RFU, KIAA1704 /// LOC100996395 / Fold change vs veh, KIAA1704 /// LOC100996395 / RFU, ING1 / Fold change vs veh, ING1 / RFU, TRMT61B / Fold change vs veh, TRMT61B / RFU, FUBP3 / Fold change vs veh, FUBP3 / RFU, TP53 / Fold change vs veh, TP53 / RFU, TNKS2 / Fold change vs veh, TNKS2 / RFU, ZFP14 / Fold change vs veh, ZFP14 / RFU, ACTR2 / Fold change vs veh, ACTR2 / RFU, PPP3R1 / Fold change vs veh, PPP3R1 / RFU, PIK3R1 / Fold change vs veh, PIK3R1 / RFU, HNRNPA1 / Fold change vs veh, HNRNPA1 / RFU, RNF170 / Fold change vs veh, RNF170 / RFU, ZNF28 / Fold change vs veh, ZNF28 / RFU, RNGTT / Fold change vs veh, RNGTT / RFU, OGT / Fold change vs veh, OGT / RFU, BRD1 / Fold change vs veh, BRD1 / RFU, MARS / Fold change vs veh, MARS / RFU, ZNF655 / Fold change vs veh, ZNF655 / RFU, FAHD1 / Fold change vs veh, FAHD1 / RFU, BDP1 / Fold change vs veh, BDP1 / RFU, LRRCC1 / Fold change vs veh, LRRCC1 / RFU, ARID1A / Fold change vs veh, ARID1A / RFU, ZNF146 / Fold change vs veh, ZNF146 / RFU, ZNF330 / Fold change vs veh, ZNF330 / RFU, GPN3 / Fold change vs veh, GPN3 / RFU, C9orf123 / Fold change vs veh, C9orf123 / RFU, N4BP2L2 / Fold change vs veh, N4BP2L2 / RFU, ARFIP1 / Fold change vs veh, ARFIP1 / RFU, FAM179B / Fold change vs veh, FAM179B / RFU, BCL10 / Fold change vs veh, BCL10 / RFU, UHRF1BP1L / Fold change vs veh, UHRF1BP1L / RFU, BET1 / Fold change vs veh, BET1 / RFU, CNOT2 / Fold change vs veh, CNOT2 / RFU, ZNF268 / Fold change vs veh, ZNF268 / Fold change vs veh, ZNF507 / RFU, DGCR2 / Fold change vs veh, DGCR2 / RFU, WDSUB1 / Fold change vs veh, WDSUB1 / Fold change vs veh, HSP90B1 /// MIR3652 / RFU, ADSS / Fold change vs veh, ADSS / RFU, GK / Fold change vs veh, GK / RFU, ZNF148 / Fold change vs veh, ZNF148 / RFU, TAF9 / Fold change vs veh, TAF9 / RFU, SLC1A5 / Fold change vs veh, SLC1A5 / RFU, SLMO2 / Fold change vs veh, SLMO2 / RFU, ABCC4 / Fold change vs veh, ABCC4 / RFU, LOC101060439 /// RAP1B / Fold change vs veh, LOC101060439 /// RAP1B / RFU, RFX7 / Fold change vs veh, RFX7 / RFU, GTPBP10 / Fold change vs veh, GTPBP10 / RFU, CNEP1R1 / Fold change vs veh, CNEP1R1 / RFU, BIVM-ERCC5 /// ERCC5 / Fold change vs veh, BIVM-ERCC5 /// ERCC5 / RFU, ILF3 / Fold change vs veh, ILF3 / RFU 11762660_at / Fold change /veh 11762660_at / RFU VCAN (11757783_s_at) / Fold change /veh VCAN (11757783_s_at) / RFU DDX43 (11728927_at) / Fold change /veh DDX43 (11728927_at) / RFU KRT8 (11758188_x_at) / Fold change /veh KRT8 (11758188_x_at) / RFU NKD1 (11759106_at) / Fold change /veh NKD1 (11759106_at) / RFU SRD5A1 (11742802_a_at) / Fold change /veh SRD5A1 (11742802_a_at) / RFU TPSAB1 /// TPSB2 (11721975_s_at) / Fold change /veh TPSAB1 /// TPSB2 (11721975_s_at) / RFU GSTM3 (11746129_a_at) / Fold change /veh GSTM3 (11746129_a_at) / RFU IL23R (11737362_x_at) / Fold change /veh IL23R (11737362_x_at) / RFU TMEM51 (11727254_a_at) / Fold change /veh TMEM51 (11727254_a_at) / RFU PIWIL2 (11732686_x_at) / Fold change /veh PIWIL2 (11732686_x_at) / RFU ORM1 (11744905_x_at) / Fold change /veh ORM1 (11744905_x_at) / RFU CCDC152 (11743942_at) / Fold change /veh CCDC152 (11743942_at) / RFU ECM1 (11717891_a_at) / Fold change /veh ECM1 (11717891_a_at) / RFU IL23R (11748794_a_at) / Fold change /veh IL23R (11748794_a_at) / RFU TNFAIP8L3 (11732012_x_at) / Fold change /veh TNFAIP8L3 (11732012_x_at) / RFU MBOAT4 (11741988_at) / Fold change /veh MBOAT4 (11741988_at) / RFU 11764193_at / Fold change /veh 11764193_at / RFU TMEM53 (11763286_at) / Fold change /veh TMEM53 (11763286_at) / RFU MAGEB2 (11727129_at) / Fold change /veh MAGEB2 (11727129_at) / RFU TMEM200A (11744735_a_at) / Fold change /veh TMEM200A (11744735_a_at) / RFU CCDC152 (11751479_a_at) / Fold change /veh CCDC152 (11751479_a_at) / RFU FAM211A (11726209_a_at) / Fold change /veh FAM211A (11726209_a_at) / RFU RGS16 (11746705_a_at) / Fold change /veh RGS16 (11746705_a_at) / RFU VCAN (11755009_s_at) / Fold change /veh VCAN (11755009_s_at) / RFU RHOB (11743442_s_at) / Fold change /veh RHOB (11743442_s_at) / RFU RGS16 (11720943_a_at) / Fold change /veh RGS16 (11720943_a_at) / RFU RGS16 (11720944_at) / Fold change /veh RGS16 (11720944_at) / RFU, VPS4B / Fold change vs veh, VPS4B / RFU, CREB1 / Fold change vs veh, CREB1 / RFU, DNAJC13 / Fold change vs veh, DNAJC13 / RFU, GNAQ / Fold change vs veh, GNAQ / RFU, CDK5R1 / Fold change vs veh, CDK5R1 / RFU, ZRANB3 / Fold change vs veh, ZRANB3 / RFU, CUL4A / Fold change vs veh, CUL4A / RFU, CCNY / Fold change vs veh, CCNY / RFU, UFL1 / Fold change vs veh, UFL1 / RFU, COG3 / Fold change vs veh, COG3 / RFU, DIAPH2 / Fold change vs veh, DIAPH2 / RFU, SKA2 / Fold change vs veh, SKA2 / RFU, AFF3 / Fold change vs veh, AFF3 / RFU, LMF1 / Fold change vs veh, LMF1 / RFU, IPO11 / Fold change vs veh, IPO11 / RFU, DFFB / Fold change vs veh, DFFB / RFU, FOXP1 / Fold change vs veh, FOXP1 / RFU, CARD8 / Fold change vs veh, CARD8 / RFU, STRN3 / Fold change vs veh, STRN3 / RFU, ADK / Fold change vs veh, ADK / RFU, RASSF2 / Fold change vs veh, RASSF2 / RFU, WIPF1 / Fold change vs veh, WIPF1 / RFU, LARP1B / Fold change vs veh, LARP1B / RFU, RASA1 / Fold change vs veh, RASA1 / RFU, RB1 / Fold change vs veh, RB1 / RFU, PPFIA1 / Fold change vs veh, PPFIA1 / RFU, MAT2A / Fold change vs veh, MAT2A / RFU, CCT5 / Fold change vs veh, CCT5 / RFU, WDR92 / Fold change vs veh, WDR92 / RFU, CUX1 / Fold change vs veh, CUX1 / RFU, TTC7A / Fold change vs veh, TTC7A / RFU, TMEM135 / Fold change vs veh, TMEM135 / RFU, DEPTOR / Fold change vs veh, DEPTOR / RFU, CPM / Fold change vs veh, CPM / RFU, DNAJB6 / Fold change vs veh, DNAJB6 / RFU, CACNA2D3 / Fold change vs veh, CACNA2D3 / RFU, DTX4 / Fold change vs veh, DTX4 / RFU, TFCP2 / Fold change vs veh, TFCP2 / RFU, GMCL1 /// GMCL1P1 / Fold change vs veh, GMCL1 /// GMCL1P1 / RFU, AEBP2 / Fold change vs veh, AEBP2 / RFU, SNHG1 /// SNORD22 /// SNORD25 /// SNORD26 /// SNORD27 /// SNORD28 /// SNORD29 /// SNORD31 / Fold change vs veh, SNHG1 /// SNORD22 /// SNORD25 /// SNORD26 /// SNORD27 /// SNORD28 /// SNORD29 /// SNORD31 / Fold change (Aza/veh), C12orf56 (ProbeSet 11735607_a_at) / Fold change (ACY-1035/veh), C12orf56 (ProbeSet 11735607_a_at) / Fold change (Aza/veh), FGFR1OP (ProbeSet 11751329_s_at) / Fold change (ACY-1035/veh), FGFR1OP (ProbeSet 11751329_s_at) / Fold change (Aza/veh), VPS36 (ProbeSet 11739960_a_at) / Fold change (ACY-1035/veh), VPS36 (ProbeSet 11739960_a_at) / RFU SYPL1 (11715823_x_at) / Fold change /veh SYPL1 (11715823_x_at) / RFU IGFBP7 (11715501_s_at) / Fold change /veh IGFBP7 (11715501_s_at) / RFU REEP3 (11722064_at) / Fold change /veh REEP3 (11722064_at) / RFU IGLL1 (11728026_x_at) / Fold change /veh IGLL1 (11728026_x_at): dose or concentration left out as unconfirmed", "conditions": "ProbeSet 11731093_s_at; LIST B"}
{"smiles": "Nc1ccc(-c2cccs2)cc1NC(=O)c1ccc2c(c1)cc(C1CC1)n2CCN1CCOCC1", "note": "[ACY-1035]", "values": [{"measurement": "RFU, BRD1", "result": 190.44, "unit": "RFU"}]}
